Results on one compound are retold here after patent US9795567B2, “Immediate release formulations and dosage forms of gamma-hydroxybutyrate” (Jazz Pharmaceuticals, Inc., priority 2008, dated 2017).

The conditions of data set [1]: in man, given orally; cited from earlier work.
The test system of data set [2] is patients with hyperkinetic movement disorders including ethanol responsive myoclonus and essential tremor. Conditions: five patients, open label; cited from earlier work.
Data set [3] can be described thus: Plasma pharmacokinetics of sodium oxybate given orally (background and definition statements). To be noted: human, oral.

Turning to `O=C(O)CCCO` [sodium oxybate, Sodium gamma-hydroxybutyrate], the plasma half-life result in data set [1] was “about 45 minutes”. Besides, in data set [2], the “blinded ratings of ethanol responsive myoclonus and tremor” value is recorded as “dose-dependent improvements”; the tolerability result is “tolerated at doses that provided clinical benefit”. Moreover, in data set [3], the Tmax was 30 to 150 min and the half-life fell in the range of 24 to 54 min.

The Tmax is the time from dosing to the highest level. A word on the half-life: it is how long it takes for the measured level to halve.
